According to patent US10538521B2, “Pyrimidine derivative having antimalarial activity” (CARNA BIOSCIENCES, INC., priority 2016, dated 2020):
Where a name gives a salt, the structure may show the parent alone. Read-outs that look alike come from different tables or passages of the source.

Key:
[1] = system: K1 strain, a drug resistant strain of Plasmodium falciparum; experiment: In vitro antimalarial assay (p-LDH, Malstat), K1 strain; assay type: cell-based; details: read-out: Antimalarial activity (IC50 value), Strain K1
Description: (§1) For the evaluation of the antimalarial activity of the compound of the present invention, K1 strain, a drug resistant strain of Plasmodium falciparum, and FCR3 strain, a drug sensitive strain thereof, which were generous gift from Professor Kiyoshi Kita of the Graduate School of Medicine and Faculty of Medicine, the University of Tokyo, were used to measure the in vitro antimalarial activity of the compound against those Plasmodium species according to the method established by Otoguro et al. (Otoguro, K., Kohana, A., Manabe, C., Ishiyama, A., Ui, H., Shiomi, K., Yamada, H. & Omura, S.: Potent antimalarial activity of polyether antibiotic, X-206. J. Antibiot., 54: 658-663, (2001)).
(§2) The parasites were grown based on a slightly modified method from the original method reported by Trager and Jensen (Trager, W. and Jensen, J.: Human malaria parasites in continuous culture, Science, 193: 673-677, (1976)), and those which were maintained and sub-cultured by the method were used. More specifically, in a culture dish, erythrocytes infected with the protozoa, which had been sub-cultured using a RPMI 1640 medium to which 10% human plasma had been added and fresh human erythrocytes, were diluted (hematocrit value: 2 to 5%, parasitaemia: 0.25 to 1%), and were cultured at 37° C. in a mixed gas of 3% O2-4% CO2-93% N2, and continuously cultured while changing the medium and adding fresh erythrocytes at 2- or 3-day intervals.
(§3) A drug susceptibility test was performed by modifying the method established by Desjardins et al. (Desjardins, R. E., Canfield, C. J., Haynes, D. E. and Chulay, J. D.: Quantitative assessment of antimalarial activity in vitro by a semiautomated microdilution technique. Antimicrob. Agents Chemother., 16: 710-718 (1979)). More specifically, 190 μL of a suspension of protozoa which had been precultured (hematocrit value: 2%, parasitaemia: 0.5 or 1%) and 10 μL of a solution of a test compound (5% DMSO solution) serially diluted so that the final concentration was 12.5 to 0.0001 μM were put in each well of a 96-well plate, and after mixing, the same was cultured for 72 hours in the above mixed gas.
(§4) For the measurement of the growth of protozoa, the method established by Makler (Makler, M. T., Rise, J. M., Williams, J. A., Bancroft, J. E., Piper, R. C., Gibbins, B. L. and Hinrichs, D. J.: Parasite lactate dehydrogenase as an Assay for Plasmodium falciparum drug sensitivity, Am. J. Med. Hyg., 48: 739-741 (1993)) was modified to colorimetrically determine parasite lactate dehydrogenase (p-LDH) using Malstat reagent (Flow Inc., USA).
(§5) More specifically, 72 hours after the culture, the 96-well plate was directly frozen at −20° C. for 18 hours and melted at 37° C. to hemolyze the protozoan-infected erythrocytes and destroy the protozoa to prepare a crude enzyme solution. 100 μL of Malstat reagent and 20 μL of the crude enzyme solution were added to and mixed in each well of another 96-well plate, and after reacting for 15 minutes at room temperature, 20 μL of a nitroblue tetrazolium 2 mg/mL phenazine ethosulfate 0.1 mg/mL=1:1 solution was added to the respective wells, and reaction was performed in dark conditions at room temperature for 2 hours.
(§6) The absorbance of the blue formazan product formed by the reaction was measured at a measurement wavelength of 655 nm by using a microplate reader (Labsystems, Finland) to colorimetrically determine the growth of the protozoa. The 50% growth inhibitory concentration for the protozoa of the compound (IC50 value) was determined based on the concentration-response curve of the compound.

[2] = system: FCR3 strain, a drug sensitive strain of Plasmodium falciparum; experiment: In vitro antimalarial assay (p-LDH, Malstat), FCR3 strain; assay type: cell-based; details: P. falciparum FCR3 (drug sensitive), 72 h culture, p-LDH readout, read-out: Antimalarial activity (IC50 value), Strain FCR3
Description: as §1, §2, §3, §4, §5, §6

[3] = P. falciparum K1 (drug resistant), 72 h culture, p-LDH readout

Row | Structure (SMILES) | IC50 [1, 3] [nM] | IC50 [2] [nM] | IC50 ([1]; K1, 72 h) [nM]
1 | CCOc1cc(Nc2ccn3ccnc3c2)nc(Nc2ccc(OC(C)C)nc2)n1 [Example 57, 6-Ethoxy-N4-(Imidazo[1,2-a]pyridin-7-yl)-N2-(6-isopropoxypyridin-3-yl)pyrimidine-2,4-diamine] | 1000 to 10000 | 100 to 1000 | 
2 | CCOc1cc(Nc2ccn3ccnc3c2)nc(Nc2ccc(C)cn2)n1 [Example 38, 6-ethoxy-N4-(imidazo[1,2-a]pyridin-7-yl)-N2-(5-methylpyridin-2-yl)pyrimidine-2,4-diamine] | 100 to 1000 | 100 to 1000 | 
3 | Cc1ccnc(Nc2nc(Nc3ccn4ccnc4c3)cc(-n3ccnc3)n2)c1 [Example 42, N4-(imidazo[1,2-a]pyridin-7-yl)-6-(1H-imidazol-1-yl)-N2-(4-methylpyridin-2-yl)pyrimidine-2,4-diamine] | 100 to 1000 | 100 to 1000 | 
4 | CC(C)COc1ccc(Nc2nc(Nc3ccn4ccnc4c3)cc(N3CCOCC3)n2)cn1 [Example 64, N4-(imidazo[1,2-a]pyridin-7-yl)-N2-(6-isobutoxypyridin-3-yl)-6-morpholinopyrimidine-2,4-diamine] | 100 to 1000 | < 100 | 
5 | Cc1ccc(Nc2nc(Nc3ccn4ccnc4c3)cc(N3CCN(C)[C@@H](C)C3)n2)nc1 [Example 37, (S)-6-(3,4-dimethylpiperazin-1-yl)-N4-(imidazo[1,2-a]pyridin-7-yl)-N2-(5-methylpyridin-2-yl)pyrimidine-2,4-diamine] | 1000 to 10000 | 1000 to 10000 | 
6 | Cc1cc(C)nc(Nc2nc(Nc3ccn4ccnc4c3)cc(N3C[C@@H](C)[C@H](C)C3)n2)c1 (relative stereo) [Example 193, N2-(4,6-dimethylpyridin-2-yl)-6-[trans-3,4-dimethylpyrrolidin-1-yl]-N4-(imidazo[1,2-a]pyridin-7-yl)pyrimidine-2,4-diamine] | < 100 | < 100 | 
7 | Cc1cc(C)nc(Nc2nc(Nc3ccn4ccnc4c3)cc(NN3CCCC3)n2)c1 [Example 206, N2-(4,6-dimethylpyridin-2-yl)-N4-(imidazo[1,2-a]pyridin-7-yl)-N6-(pyrrolidin-1-yl)pyrimidine-2,4,6-triamine] | < 100 | < 100 | 
8 | Cc1cc(C)nc(Nc2nc(Nc3ccn4ccnc4c3)cc(N3CCC(C)C3)n2)c1 (stereo not drawn) [Example 146, N2-(4,6-dimethylpyridin-2-yl)-N4-(imidazo[1,2-a]pyridin-7-yl)-6-(3-methylpyrrolidin-1-yl)pyrimidine-2,4-diamine] | < 100 | < 100 | 
9 | CC(C)Oc1ccc(Nc2nc(Nc3ccn4ccnc4c3)cc(N3CCN(C)CC3)n2)cn1 [Example 59, N4-(imidazo[1,2-a]pyridin-7-yl)-N2-(6-isopropoxypyridin-3-yl)-6-(4-methylpiperazin-1-yl) pyrimidine-2,4-diamine] | 1000 to 10000 |  | 
10 | CC(C)Oc1ccc(Nc2nc(Nc3ccn4ccnc4c3)cc(N3CCN(C)[C@@H](C)C3)n2)cn1 [Example 56, (S)-6-(3,4-dimethylpiperazin-1-yl)-N4-(imidazo[1,2-a]pyridin-7-yl)-N2-(6-isopropoxypyridin-3-yl)pyrimidine-2,4-diamine] | 1000 to 10000 |  | 
11 | c1cc(Nc2nc(Nc3ccn4ccnc4c3)cc(N3CCOCC3)n2)ccn1 [Example 3, N4-(imidazo[1,2-a]pyridin-7-yl)-6-morpholino-N2-(pyridin-4-yl)pyrimidine-2,4-diamine dihydrochloride] |  |  | 1000 to 10000
12 | CCOc1ccc(Nc2nc(Nc3ccn4ccnc4c3)cc(N3CCN(C)[C@@H](C)C3)n2)cn1 [Example 52, (S)-6-(3,4-Dimethylpiperazin-1-yl)-N2-(6-ethoxypyridin-3-yl)-N4-(imidazo[1,2-a]pyridin-7-yl) pyrimidine-2,4-diamine] | 1000 to 10000 |  | 

Now from value to compound, other results behind:

Row | IC50 [1, 3] [nM] | IC50 [2] [nM] | Structure (SMILES) | IC50 ([1]; K1, 72 h) [nM]
13 | < 100 | < 100 | COc1ccnc(Nc2nc(Nc3ccn4ccnc4c3)cc(N3CCCC3)n2)c1 [Example 128, N4-(imidazo[1,2-a]pyridin-7-yl)-N2-(4-methoxypyridin-2-yl)-6-(pyrrolidin-1-yl)pyrimidine-2,4-diamine] | 
14 | 100 to 1000 | 100 to 1000 | COc1cncc(Nc2nc(Nc3ccn4ccnc4c3)cc(N3CCOCC3)n2)c1 [Example 19, N4-(Imidazo[1,2-a]pyridin-7-yl)-N2-(5-methoxypyridin-3-yl)-6-morpholinopyrimidine-2,4-diamine] | 
15 | < 100 | < 100 | CC(C)c1ccnc(Nc2nc(Nc3ccn4ccnc4c3)cc(N3CCOCC3)n2)c1 [Example 70, N4-(imidazo[1,2-a]pyridin-7-yl)-N2-(4-isopropylpyridin-2-yl)-6-morpholinopyrimidine-2,4-diamine] | 
16 | < 100 | < 100 | CCc1ccnc(Nc2nc(Nc3ccn4ccnc4c3)cc(N3CC[C@@H](O)C3)n2)c1 [Example 116, (R)-1-(2-((4-ethylpyridin-2-yl)amino)-6-(imidazo[1,2-a]pyridin-7-ylamino)pyrimidin-4-yl)pyrrolidin-3-ol] | 
17 | < 100 | < 100 | CCc1ccnc(Nc2nc(Nc3ccn4ccnc4c3)cc(N3CC[C@H](O)C3)n2)c1 [Example 117, (S)-1-(2-((4-ethylpyridin-2-yl)amino)-6-(imidazo[1,2-a]pyridin-7-ylamino)pyrimidin-4-yl)pyrrolidin-3-ol] | 
18 | 100 to 1000 | 100 to 1000 | Fc1cccnc1Nc1nc(Nc2ccn3ccnc3c2)cc(N2CCOCC2)n1 [Example 20, N2-(3-Fluoropyridin-2-yl)-N4-(imidazo[1,2-a]pyridin-7-yl)-6-morpholinopyrimidine-2,4-diamine] | 
19 | 100 to 1000 | 100 to 1000 | c1cn2ccc(Nc3cc(N4CCOCC4)nc(Nc4ccc(OC5CCOCC5)nc4)n3)cc2n1 [Example 82, N4-(imidazo[1,2-a]pyridin-7-yl)-6-morpholino-N2-(6-((tetrahydro-2H-pyran-4-yl)oxy)pyridin-3-yl)pyrimidine-2,4-diamine] | 
20 | < 100 | < 100 | Cc1ccc(Nc2nc(Nc3ccn4ccnc4c3)cc(N3CCOCC3)n2)cn1 [Example 60, N4-(imidazo[1,2-a]pyridin-7-yl)-N2-(6-methylpyridin-3-yl)-6-morpholinopyrimidine-2,4-diamine] | 
21 | 1000 to 10000 | 100 to 1000 | Fc1cccc(Nc2nc(Nc3ccn4ccnc4c3)cc(N3CCOCC3)n2)n1 [Example 14, N2-(6-Fluoropyridin-2-yl)-N4-(imidazo[1,2-a]pyridin-7-yl)-6-morpholinopyrimidine-2,4-diamine] | 
22 | < 100 | < 100 | Cc1cc(C)nc(Nc2nc(Nc3ccn4ccnc4c3)cc(N3CCC3)n2)c1 [Example 166, 6-(azetidin-1-yl)-N2-(4,6-dimethylpyridin-2-yl)-N4-(imidazo [1,2-a]pyridin-7-yl)pyrimidine-2,4-diamine] | 
23 | 1000 to 10000 | 1000 to 10000 | COc1ncccc1Nc1nc(Nc2ccn3ccnc3c2)cc(N2CCOCC2)n1 [Example 5, N4-(Imidazo[1,2-a]pyridin-7-yl)-N2-(2-methoxypyridin-3-yl)-6-morpholinopyrimidine-2,4-diamine] | 
24 | 1000 to 10000 |  | C=CCOc1ccc(Nc2nc(Nc3ccn4ccnc4c3)cc(N3CCOCC3)n2)cn1 [Example 76, N2-(6-(allyloxy)pyridin-3-yl)-N4-(imidazo[1,2-a]pyridin-7-yl)-6-morpholinopyrimidine-2,4-diamine] | 
25 | 1000 to 10000 |  | Oc1ccc(Nc2nc(Nc3ccn4ccnc4c3)cc(N3CCOCC3)n2)cn1 [Example 24, 5-(4-(Imidazo[1,2-a]pyridin-7-ylamino)-6-morpholinopyrimidin-2-ylamino)pyridin-2-ol] | 
26 | 1000 to 10000 |  | c1cnc(Nc2nc(Nc3ccn4ccnc4c3)cc(N3CCOCC3)n2)nc1 [Example 16, N4-(Imidazo[1,2-a]pyridin-7-yl)-6-morpholino-N2-(pyrimidin-2-yl)pyrimidine-2,4-diamine] | 
